Assay results: US9969726B2, “Metabotropic glutamate receptor negative allosteric modulators (NAMS) and uses thereof” (Sanford-Burnham Medical Research Institute, priority 2014, dated 2018)
Read-outs that look alike come from different tables or passages of the source.

Legend:
[1] = target: rat mGlu3 receptor (Rattus norvegicus (Rat), UniProt P31422); experiment: mGlu3 in vitro GIRK thallium flux assay; type: cell-based; conditions: NAM; 2.5 min compound incubation; EC80 glutamate; HEK-293 GIRK cells
Summary of the method: (§1)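 Cells expressing rat mGlu2 or mGlu3 with GIRK, plated overnight at 37 °C. Test compounds (0.3% DMSO, 10-point 1:3 series) preincubated 2.5 or 60 min, then thallium buffer plus EC80 glutamate added. Fluorescence slope 5–15 s after addition, normalised to vehicle and maximal agonist, fitted by four-parameter logistic.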

[2] = target: rat mGlu2 receptor (Rattus norvegicus (Rat), UniProt P31421); experiment: mGlu2 in vitro GIRK thallium flux assay; type: cell-based; conditions: NAM, EC80 glutamate, HEK-293 GIRK cells
Summary of the method: as §1

[3] = 2.5 min compound incubation, read-out: mGlu2 EC50 (μM) (2.5 min)
[4] = read-out: mGlu2 EC50 (μM) (60 min), 60 min compound incubation
[5] = mGlu2 EC50 (μM) (60 min), 60 min compound incubation

rat mGlu2 receptor, sequence (P31421 19-872): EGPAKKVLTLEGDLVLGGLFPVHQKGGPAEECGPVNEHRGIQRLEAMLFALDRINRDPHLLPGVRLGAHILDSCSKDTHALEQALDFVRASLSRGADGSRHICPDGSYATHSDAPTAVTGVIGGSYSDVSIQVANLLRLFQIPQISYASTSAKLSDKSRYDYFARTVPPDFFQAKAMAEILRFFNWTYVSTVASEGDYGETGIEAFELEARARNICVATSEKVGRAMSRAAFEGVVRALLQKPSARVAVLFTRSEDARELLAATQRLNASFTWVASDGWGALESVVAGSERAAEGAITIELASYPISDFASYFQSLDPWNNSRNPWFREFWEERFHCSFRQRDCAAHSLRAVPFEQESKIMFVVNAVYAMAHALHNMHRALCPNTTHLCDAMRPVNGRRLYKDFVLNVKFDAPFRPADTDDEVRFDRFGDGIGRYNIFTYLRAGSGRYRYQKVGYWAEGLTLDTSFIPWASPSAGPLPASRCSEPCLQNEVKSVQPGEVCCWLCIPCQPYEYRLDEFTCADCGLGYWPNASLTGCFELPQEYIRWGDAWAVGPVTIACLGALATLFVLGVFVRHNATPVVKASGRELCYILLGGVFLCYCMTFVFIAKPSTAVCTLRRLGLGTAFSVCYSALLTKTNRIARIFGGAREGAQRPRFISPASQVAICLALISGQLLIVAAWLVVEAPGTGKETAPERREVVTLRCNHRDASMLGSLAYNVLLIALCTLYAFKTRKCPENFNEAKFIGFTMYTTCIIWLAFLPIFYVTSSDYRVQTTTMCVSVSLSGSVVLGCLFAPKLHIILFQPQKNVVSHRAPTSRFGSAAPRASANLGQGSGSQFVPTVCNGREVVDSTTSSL
rat mGlu3 receptor, sequence (P31422 23-879): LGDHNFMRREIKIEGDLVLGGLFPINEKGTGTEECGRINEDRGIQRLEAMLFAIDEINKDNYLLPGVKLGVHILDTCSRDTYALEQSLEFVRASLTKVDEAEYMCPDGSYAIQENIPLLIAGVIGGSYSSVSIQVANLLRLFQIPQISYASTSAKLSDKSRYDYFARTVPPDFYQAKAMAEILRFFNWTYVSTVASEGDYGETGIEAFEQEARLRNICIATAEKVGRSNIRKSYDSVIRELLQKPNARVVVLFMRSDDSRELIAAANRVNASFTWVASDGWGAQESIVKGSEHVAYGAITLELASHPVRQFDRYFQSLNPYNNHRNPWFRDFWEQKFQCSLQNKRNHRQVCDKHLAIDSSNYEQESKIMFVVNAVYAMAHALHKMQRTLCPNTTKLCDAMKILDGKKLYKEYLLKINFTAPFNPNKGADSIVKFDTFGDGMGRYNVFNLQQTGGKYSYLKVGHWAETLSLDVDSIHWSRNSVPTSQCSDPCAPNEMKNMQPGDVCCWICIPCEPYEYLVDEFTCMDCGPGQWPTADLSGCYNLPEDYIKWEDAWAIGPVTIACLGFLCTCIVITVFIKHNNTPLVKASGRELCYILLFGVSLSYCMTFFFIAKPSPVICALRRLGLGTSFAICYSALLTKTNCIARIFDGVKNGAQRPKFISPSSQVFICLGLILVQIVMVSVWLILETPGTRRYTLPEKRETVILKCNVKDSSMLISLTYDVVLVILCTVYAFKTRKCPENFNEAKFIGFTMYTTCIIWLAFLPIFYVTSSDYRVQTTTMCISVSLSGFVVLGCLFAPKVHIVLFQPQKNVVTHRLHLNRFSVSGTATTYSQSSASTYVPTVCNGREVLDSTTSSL

SMILES | EC50 [1] | EC50 [2, 3] | EC50 [2, 4] | EC50 [2, 5]
O=C(O)c1cc(-c2ccc(-c3nc(-c4ccc(C(F)(F)F)nc4)cc(C(F)(F)F)n3)cc2)ccc1F [Example 82, 4-Fluoro-4′-(4-(trifluoromethyl)-6-(6-(trifluoromethyl)pyridin-3-yl)pyrimidin-2-yl)biphenyl-3-carboxylic Acid] | 1.32 µM | 1.42 µM | 0.49 µM | –
O=C(O)c1cc(-c2cccc(-c3nc(-c4ccc(C(F)(F)F)nc4)cc(C(F)(F)F)n3)c2)ccc1Cl [Example 70, 4-Chloro-3′-(4-(trifluoromethyl)-6-(6-(trifluoromethyl)pyridin-3-yl)pyrimidin-2-yl)biphenyl-3-carboxylic Acid] | 1.58 µM | 1.26 µM | 0.2 µM | –
O=C1CC(c2ccnc(Cl)c2)=Nc2ccc(-c3ccc(C(F)(F)F)cc3F)cc2N1 [Example 201, 4-(2-Chloropyridin-4-yl)-8-(2-fluoro-4-(trifluoromethyl)phenyl)-1,3-dihydro-2H-benzo[b][1,4]diazepin-2-one] | 1.61 µM | > 10 µM | 0.52 µM | –
COc1ccc(C(=O)O)cc1-c1cccc(-c2csc(-c3ccccc3)n2)c1 [Example 23, 6-Methoxy-3′-(2-phenylthiazol-4-yl)biphenyl-3-carboxylic Acid] | > 10 µM | 1.81 µM | – | 1.35 µM
O=C(O)c1ccc(-c2cccc(-c3csc(-c4ccccc4)n3)c2)cc1Cl [Example 21, 3-Chloro-3′-(2-phenylthiazol-4-yl)biphenyl-4-carboxylic Acid] | > 10 µM | > 10 µM | – | > 10 µM
O=C(O)c1cccc(-c2cccc(-c3cn(-c4ccccc4)c(-c4ccccc4)n3)c2)c1 [Example 67, 3′-(1,2-Diphenyl-1H-imidazol-4-yl)-[1,1′-biphenyl]-3-carboxylic Acid] | > 10 µM | > 10 µM | > 10 µM | –
O=C(O)c1ccccc1-c1cccc(-c2csc(-c3ccccc3)n2)c1 [Example 25, 3′-(2-Phenylthiazol-4-yl)biphenyl-2-carboxylic Acid] | > 10 µM | > 10 µM | > 10 µM | –
O=C(O)c1cc(-c2cccc(-c3csc(-c4ccoc4)n3)c2)ccc1F [Example 4, 4-Fluoro-3′-(2-(furan-3-yl)thiazol-4-yl)biphenyl-3-carboxylic Acid] | > 10 µM | 2.26 µM | – | 2.5 µM
O=C(O)c1cccc(-c2cccc(-c3cc(-c4ccccc4)sn3)c2)c1 [Example 44, 3′-(5-Phenylisothiazol-3-yl)-[1,1′-biphenyl]-3-carboxylic Acid] | > 10 µM | 0.68 µM | 0.18 µM | –
O=C(O)c1cc(-c2cccc(-c3nc(-c4cccs4)cc(C(F)(F)F)n3)c2)ccc1F [Example 87A, 4-Fluoro-3′-(4-(thiophen-2-yl)-6-(trifluoromethyl)pyrimidin-2-yl)biphenyl-3-carboxylic Acid] | 1.26 µM | 1.12 µM | 0.24 µM | –
FC(F)(F)c1ccc(-c2cc(C(F)(F)F)nc(-c3cccc(-c4cccc(-c5nn[nH]n5)c4)c3)n2)cn1 [Example 123, 2-(3′-(2H-Tetrazol-5-yl)biphenyl-3-yl)-4-(trifluoromethyl)-6-(6-(trifluoromethyl)pyridin-3-yl)pyrimidine] | 2.39 µM | 0.75 µM | 0.43 µM | –
Cc1cc2c(cc1C(F)(F)F)NC(=O)CC(c1cccc(C#Cc3ccccc3)c1)=N2 [Example 202, 7-Methyl-4-(3-phenylethynyl-phenyl)-8-trifluoromethyl-1,3-dihydro-benzo[b][1,4]diazepin-2-one] | > 10 µM | > 10 µM | > 10 µM | –
O=C1CC(c2ccnc(Cl)c2)=Nc2ccc(C(F)(F)F)cc2N1 [Example 189, 4-(2-Chloropyridin-4-yl)-8-(trifluoromethyl)-1,3-dihydro-2H-benzo[b][1,4]diazepin-2-one] | 0.28 µM | 0.29 µM | 0.08 µM | –
O=C(O)c1cc(-c2csc(-c3ccccc3)n2)ccc1F [Example 27, 2-Fluoro-5-(2-phenylthiazol-4-yl)benzoic acid] | > 30 µM | > 10 µM | – | > 30 µM
O=C(O)c1cc(-c2cccc(-c3nc(-c4cccnc4)cc(C(F)(F)F)n3)c2)ccc1F [Example 116, 4-Fluoro-3′-(4-(pyridin-3-yl)-6-(trifluoromethyl)pyrimidin-2-yl)biphenyl-3-carboxylic Acid] | 8.58 µM | 2.11 µM | 0.27 µM | –
O=C(O)c1ccoc1-c1cccc(-c2nc(-c3ccccc3)n(-c3ccccc3)n2)c1 [Example 62, 2-(3-(1,5-Diphenyl-1H-1,2,4-triazol-3-yl)phenyl)furan-3-carboxylic Acid] | 0.21 µM | > 10 µM | – | > 30 µM

SMILES | EC50 [1] | EC50 [2, 3] | EC50 [2, 4] | EC50 [2, 5]
O=C(O)c1cccc(-c2cccc(-c3csc(-c4cccc(C(=O)O)c4)n3)c2)c1 [Example 33, 3-{4-[3-(3-Carboxyphenyl)phenyl]-1,3-thiazol-2-yl}benzoic acid] | > 10 µM | 4.83 µM | – | > 10 µM
O=C(O)c1cc(-c2cccc(-c3csc(-c4cc5ccccc5s4)n3)c2)ccc1F [Example 8, 3′-(2-(Benzo[b]thiophen-2-yl)thiazol-4-yl)-4-fluorobiphenyl-3-carboxylic Acid] | > 10 µM | > 10 µM | – | 1.92 µM
Cc1cc(-c2cccc(C3CC(=O)Nc4cc(C(F)(F)F)c(C)cc4N3)c2)cc(C)n1 (racemic) [Example 156, 4-(3-(2,6-Dimethylpyridin-4-yl)phenyl)-7-methyl-8-(trifluoromethyl)-4,5-dihydro-1H-benzo[b][1,4]diazepin-2(3H)-one] | > 10 µM | > 10 µM | – | 3.7 µM
NS(=O)(=O)c1cccc(-c2cn(-c3nc(-c4ccc(C(F)(F)F)nc4)cc(C(F)(F)F)n3)cn2)c1 [Example 125, 3-(1-(4-(Trifluoromethyl)-6-(6-(trifluoromethyl)pyridin-3-yl)pyrimidin-2-yl)-1H-imidazol-4-yl)benzenesulfonamide] | > 30 µM | > 10 µM | > 10 µM | –
Cc1cc2c(cc1C(F)(F)F)NC(=O)CC(c1cccc(Oc3cccc(Br)c3)c1)=N2 [Example 145, 4-(3-(3-Bromophenoxy)phenyl)-7-methyl-8-(trifluoromethyl)-1H-benzo[b][1,4]diazepin-2(3H)-one] | > 10 µM | > 10 µM | > 10 µM | –
O=C(O)c1cc(-c2cccc(-c3csc(-c4cc5ccccc5o4)n3)c2)ccc1F [Example 16, 3′-(2-(Benzofuran-2-yl)thiazol-4-yl)-4-fluorobiphenyl-3-carboxylic Acid] | 3.32 µM | 2.57 µM | – | 1.93 µM
Cc1cccc(-c2ccc3c(c2)NC(=O)CC(c2ccnc(Cl)c2)=N3)c1 [Example 193, 4-(2-Chloropyridin-4-yl)-8-(m-tolyl)-1,3-dihydro-2H-benzo[b][1,4]diazepin-2-one] | > 10 µM | > 10 µM | 0.95 µM | –
Cc1cc2c(cc1C(F)(F)F)NC(=O)CC(c1cccc(Oc3ncccn3)c1)N2 (racemic) [Example 164, 7-Methyl-4-(3-(pyrimidin-2-yloxy)phenyl)-8-(trifluoromethyl)-4,5-dihydro-1H-benzo[b][1,4]diazepin-2(3H)-one] | 5.57 µM | > 10 µM | – | 1.56 µM
Cc1cc2c(cc1C(F)(F)F)NC(=O)CC(c1cccc(Oc3ccccn3)c1)=N2 [Example 150, 7-Methyl-4-(3-(pyridin-2-yloxy)phenyl)-8-(trifluoromethyl)-1H-benzo[b][1,4]diazepin-2(3H)-one] | 1.52 µM | 2.79 µM | – | –
ON=Cc1cc(-c2cccc(-c3csc(-c4ccccc4)n3)c2)ccc1F [Example 20, 4-Fluoro-3′-(2-phenylthiazol-4-yl)biphenyl-3-carbaldehyde oxime] | > 30 µM | > 30 µM | – | > 10 µM
COc1ccc(-c2cccc(-c3csc(-c4ccccc4)n3)c2)cc1C(=O)O [Example 12, 4-Methoxy-3′-(2-phenylthiazol-4-yl)-[1,1′-biphenyl]-3-carboxylic Acid] | 1.77 µM | 1.73 µM | – | 2.14 µM
COc1ccc(-c2cc(C(F)(F)F)nc(-c3cccc(-c4ccc(F)c(C(=O)O)c4)c3)n2)cc1OC [Example 99, 3′-(4-(3,4-Dimethoxyphenyl)-6-(trifluoromethyl)pyrimidin-2-yl)-4-fluorobiphenyl-3-carboxylic Acid] | 2.83 µM | > 10 µM | 1.3 µM | –
O=C1CC(c2ccnc(Br)c2)=Nc2ccc(-c3ccc(C(F)(F)F)cc3C(F)(F)F)cc2N1 [Example 194, 8-(2,4-Bis(trifluoromethyl)phenyl)-4-(2-bromopyridin-4-yl)-1,3-dihydro-2H-benzo[b][1,4]diazepin-2-one] | > 10 µM | > 10 µM | 3.47 µM | –
O=C1CC(c2ccnc(-c3ccccc3)c2)=Nc2ccc(C(F)(F)F)cc2N1 [Example 198, 4-(2-Phenylpyridin-4-yl)-8-(trifluoromethyl)-1,3-dihydro-2H-benzo[b][1,4]diazepin-2-one] | 0.46 µM | > 10 µM | 0.26 µM | –
O=C(O)c1cc(-c2cccc(-c3nc(-c4sccc4Cl)cc(C(F)(F)F)n3)c2)ccc1F [Example 107, 3′-(4-(3-Chlorothiophen-2-yl)-6-(trifluoromethyl)pyrimidin-2-yl)-4-fluorobiphenyl-3-carboxylic Acid] | > 10 µM | 4.53 µM | – | –
